Active and inactive are the calls of the source.
Columns and labels:
[1] = test system: SARS-CoV-2; format: functional, organism-based; conditions: Severe acute respiratory syndrome coronavirus 2; MA10; dose 30.0 mg/kg, route po, time 2-5 day
[2] = test system: SARS-CoV-2; format: functional, organism-based; conditions: Severe acute respiratory syndrome coronavirus 2; MA10; dose 60.0 mg/kg, route po, time 2-5 day
[3] = test system: SARS-CoV-2; format: functional, organism-based; conditions: Severe acute respiratory syndrome coronavirus 2; MA10; dose 60.0 mg/kg, route po, time 2-5 day; remark: listed apart in the source
[4] = test system: SARS-CoV-2; format: functional, organism-based; conditions: Severe acute respiratory syndrome coronavirus 2; MA10; dose 60.0 mg/kg, route po, time 2-5 day; remark: listed apart in the source
[5] = test system: SARS-CoV-2; format: functional, organism-based; conditions: Severe acute respiratory syndrome coronavirus 2; MA10; dose 60.0 mg/kg, route po, time 2-5 day; remark: listed apart in the source
[6] = test system: SARS-CoV-2; format: functional, organism-based; conditions: Severe acute respiratory syndrome coronavirus 2; MA10; dose 30.0 mg/kg, route po, time 2-5 day; remark: listed apart in the source
[7] = test system: SARS-CoV-2; format: functional, organism-based; conditions: Severe acute respiratory syndrome coronavirus 2; MA10; dose 30.0 mg/kg, route po, time 2-5 day; remark: listed apart in the source
[8] = test system: SARS-CoV-2; format: functional, organism-based; conditions: Severe acute respiratory syndrome coronavirus 2; MA10; dose 60.0 mg/kg, route po, time 3-5 day
[9] = test system: SARS-CoV-2; format: functional, organism-based; conditions: Severe acute respiratory syndrome coronavirus 2; MA10; Pneumocyte; dose 30.0 mg/kg, route po, time 2-5 day
[10] = test system: SARS-CoV-2; format: functional, organism-based; conditions: Severe acute respiratory syndrome coronavirus 2; MA10; dose 30.0 mg/kg, route po, time 2-5 day; remark: listed apart in the source
[11] = test system: SARS-CoV-2; format: functional, organism-based; conditions: Severe acute respiratory syndrome coronavirus 2; MA10; dose 30.0 mg/kg, route po, time 5.0 day
[12] = test system: SARS-CoV-2; format: functional, organism-based; conditions: Severe acute respiratory syndrome coronavirus 2; MA10; dose 60.0 mg/kg, route po, time 2-5 day; remark: listed apart in the source
[13] = test system: SARS-CoV-2; format: functional, organism-based; conditions: Severe acute respiratory syndrome coronavirus 2; MA10; dose 30.0 mg/kg, route po, time 2-5 day; remark: listed apart in the source
[14] = test system: SARS-CoV-2; format: functional, organism-based; conditions: Severe acute respiratory syndrome coronavirus 2; MA10; dose 60.0 mg/kg, route po, time 2-5 day; remark: listed apart in the source
[15] = test system: SARS-CoV-2; format: functional, organism-based; conditions: Severe acute respiratory syndrome coronavirus 2; MA10; Pneumocyte; dose 60.0 mg/kg, route po, time 2-5 day
[16] = test system: SARS-CoV-2; format: functional, organism-based; conditions: Severe acute respiratory syndrome coronavirus 2; MA10; dose 30.0 mg/kg, route po, time 2-5 day; remark: listed apart in the source
[17] = test system: SARS-CoV-2; conditions: dose 30 mg/kg; route po; time 5 day
[18] = test system: SARS-CoV-2; format: functional, organism-based; conditions: Severe acute respiratory syndrome coronavirus 2; MA10; dose 30.0 mg/kg, route po, time 2.0 day
[19] = test system: SARS-CoV-2; format: functional, organism-based; conditions: Severe acute respiratory syndrome coronavirus 2; MA10; dose 30.0 mg/kg, route po, time 2-5 day; remark: listed apart in the source
[20] = test system: SARS-CoV-2; format: functional, organism-based; conditions: Severe acute respiratory syndrome coronavirus 2; MA10; dose 60.0 mg/kg, route po, time 2-5 day; remark: listed apart in the source
[21] = test system: SARS-CoV-2; conditions: dose 60 mg/kg; route po; time 5 day
[22] = test system: SARS-CoV-2; format: functional, organism-based; conditions: Severe acute respiratory syndrome coronavirus 2; MA10; dose 30.0 mg/kg, route po, time 2-5 day; remark: listed apart in the source
[23] = test system: SARS-CoV-2; format: functional, organism-based; conditions: Severe acute respiratory syndrome coronavirus 2; MA10; Pneumocyte; dose 60.0 mg/kg, route po, time 2-5 day; remark: listed apart in the source
[24] = test system: SARS-CoV-2; conditions: dose 30 mg/kg; route po; time 5 day; remark: listed apart in the source
[25] = test system: SARS-CoV-2; format: functional, organism-based; conditions: Severe acute respiratory syndrome coronavirus 2; MA10; Pneumocyte; dose 30.0 mg/kg, route po, time 2-5 day; remark: listed apart in the source
[26] = test system: SARS-CoV-2; format: functional, organism-based; conditions: Severe acute respiratory syndrome coronavirus 2; MA10; dose 30.0 mg/kg, route po, time 2-5 day; remark: listed apart in the source
[27] = test system: SARS-CoV-2; conditions: dose 60 mg/kg; route po; time 2 day
[28] = test system: SARS-CoV-2; format: functional, organism-based; conditions: Severe acute respiratory syndrome coronavirus 2; MA10; dose 60.0 mg/kg, route po, time 2-5 day; remark: listed apart in the source
[29] = test system: SARS-CoV-2; format: functional, organism-based; conditions: Severe acute respiratory syndrome coronavirus 2; MA10; dose 30.0 mg/kg, route po, time 2-5 day; remark: listed apart in the source
[30] = test system: SARS-CoV-2; format: functional, organism-based; conditions: Severe acute respiratory syndrome coronavirus 2; MA10; dose 60.0 mg/kg, route po, time 2-5 day; remark: listed apart in the source
[31] = test system: SARS-CoV-2; format: functional, organism-based; conditions: Severe acute respiratory syndrome coronavirus 2; MA10; dose 60.0 mg/kg, route po, time 5.0 day
[32] = test system: SARS-CoV-2; conditions: dose 60 mg/kg; route po; time 4 day
[33] = test system: SARS-CoV-2; conditions: dose 30 mg/kg; route po; time 4 day
[34] = test system: SARS-CoV-2; conditions: dose 60 mg/kg; route po; time 4 day; remark: listed apart in the source
[35] = test system: SARS-CoV-2; conditions: dose 30 mg/kg; route po; time 4 day; remark: listed apart in the source

CCCCCCCCCCCCCCCCCCOC[C@H](COP(=O)(O)OC[C@H]1O[C@@](C#N)(c2ccc3c(N)ncnn23)[C@H](O)[C@@H]1O)OCc1ccccc1
1.52: log(activity) [27]
active: Activity [8] | Activity [18] | Activity [31]
>2.14: log(activity) [17] | log(activity) [21] | log(activity) [24]
inactive: Activity [1] | Activity [2] | Activity [3] | Activity [4] | Activity [5] | Activity [6] | Activity [7] | Activity [9] | Activity [10] | Activity [11] | Activity [12] | Activity [13] | Activity [14] | Activity [15] | Activity [16] | Activity [19] | Activity [20] | Activity [22] | Activity [23] | Activity [25] | Activity [26] | Activity [28] | Activity [29] | Activity [30]

CC(C)C(=O)OC[C@H]1O[C@@](C#N)(c2ccc3c(N)ncnn23)[C@H](OC(=O)C(C)C)[C@@H]1OC(=O)C(C)C
>2.9: log(activity) [32] | log(activity) [33]

CC(C)C(=O)OC[C@H]1O[C@@H](n2cc/c(=N\O)[nH]c2=O)[C@H](O)[C@@H]1O [MOLNUPIRAVIR]
2.6: log(activity) [32]
2.1: log(activity) [35]
2.9: log(activity) [34]

— ChEMBL document CHEMBL5380858 (J Med Chem, 2023)
